Results on 14 molecules are retold here after US8802663B2, “Pyrazole oxadiazole derivatives as S1P1 agonists” (Merck Serono SA, priority 2009, dated 2014).

The structures appear in SMILES notation. Structures can show the parent of a compound that is named as a salt.

For the assay, the target named is S1P1 (Homo sapiens (Human), UniProt P21453). The assay can be described thus: 35S-GTPγS binding, membranes from CHO cells expressing S1P1. As to conditions: CHO cell membranes. The class given is biochemical. As to the method: Cells were suspended in 50 mM TRIS, pH 7.4, 2 mM EDTA, 250 mM Sucrose (buffer A) and 1× Complete protease inhibitor cocktail (Roche), and disrupted at 4° C. by N2 decompression using a cell disruption bomb (Parr Instrument). Following centrifugation at 1000 RPM for 10 min at 4° C., the supernatant was suspended in buffer A and centrifuged again at 19000 RPM for 60 min at 4° C. The pellet was then suspended in 10 mM HEPES, pH 7.4, 1 mM EDTA, 250 mM Sucrose (Buffer B), and 1× Complete EDTA-free protease inhibitor cocktail and homogenized using a potter. Membranes were flash frozen in liquid N2 and stored at −80° C. [33P]sphingosine 1-phosphate (3000 Ci/mmol; American Radiolabeled Chemicals, Inc.) was added to test compounds in DMSO. […] Specific binding was calculated by subtracting remaining radioactivity in the presence of 1000-fold excess of unlabeled SIP. Binding data were analyzed using the GraphPad Prism program.
After 60 min incubation at 30° C. on a shaker, plates were centrifuged for 10 min at 2000 RPM. […] Triplicate samples were averaged and expressed as % response relative to S1P activation in absence of compound (n=2).
(In general: GTPγS resists hydrolysis and so accumulates on activated G proteins.)

S1P1, sequence (P21453 whole entry, species assumed): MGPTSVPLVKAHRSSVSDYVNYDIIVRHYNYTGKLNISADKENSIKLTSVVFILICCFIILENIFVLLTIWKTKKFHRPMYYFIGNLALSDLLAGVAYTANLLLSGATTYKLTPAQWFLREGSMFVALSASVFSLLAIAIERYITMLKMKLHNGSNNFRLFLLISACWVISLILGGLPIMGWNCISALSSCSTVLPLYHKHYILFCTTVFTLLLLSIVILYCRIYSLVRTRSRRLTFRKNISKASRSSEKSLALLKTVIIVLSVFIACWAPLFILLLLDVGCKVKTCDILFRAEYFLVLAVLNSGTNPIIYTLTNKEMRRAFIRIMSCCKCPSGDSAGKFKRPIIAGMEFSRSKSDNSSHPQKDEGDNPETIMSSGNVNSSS

Broadly, the EC50 is the concentration needed to bring the measured effect to its halfway point. A low value points to a more potent agent. As for `Brc1ccc(-c2noc(-c3cnn(C4CCCCC4)c3-c3ccncc3)n2)cc1` [Example 92, 3-(4-bromophenyl)-5-(1-cyclohexyl-5-(pyridin-4-yl)-1H-pyrazol-4-yl)-1,2,4-oxadiazole], the response was half-maximal at 0.158 µM (EC50).
Next, `CC(C)(C)Cn1ncc(-c2nc(-c3cc(F)ccc3F)no2)c1-c1ccncc1` [Example 93, 3-(2,5-difluorophenyl)-5-(1-neopentyl-5-(pyridin-4-yl)-1H-pyrazol-4-yl)-1,2,4-oxadiazole]: 0.301 µM.
Consider `OCc1ccc(-c2noc(-c3cnn(CC4CC4)c3-c3ccncc3)n2)cc1` [Example 94, (4-(5-(1-(cyclopropylmethyl)-5-(pyridin-4-yl)-1H-pyrazol-4-yl)-1,2,4-oxadiazol-3-yl)phenyl)methanol], for which the EC50 worked out at 0.387 µM. The EC50 values of the last two molecules are within 1.5-fold of each other.
Next, `c1cc(-c2c(-c3nc(-c4ccc5nccn5c4)no3)cnn2C2CCCCC2)ccn1` [Example 95, 5-(1-cyclohexyl-5-(pyridin-4-yl)-1H-pyrazol-4-yl)-3-(imidazo[1,2-a]pyridin-6-yl)-1,2,4-oxadiazole]: 0.096 µM.
Next, `Fc1ccc(F)c(-c2noc(-c3cnn(CCc4ccccc4)c3-c3ccncc3)n2)c1` [Example 99, 3-(2,5-difluorophenyl)-5-(1-phenethyl-5-(pyridin-4-yl)-1H-pyrazol-4-yl)-1,2,4-oxadiazole]: 0.496 µM; `CC(C)(C)Cn1ncc(-c2nc(-c3ccc(CO)cc3)no2)c1-c1ccncc1` [Example 100, (4-(5-(1-neopentyl-5-(pyridin-4-yl)-1H-pyrazol-4-yl)-1,2,4-oxadiazol-3-yl)phenyl)methanol]: 0.377 µM.
Next, `COCCc1c(-c2nc(-c3cc(F)ccc3F)no2)cnn1C1CCCCC1` [Example 103, 5-(1-cyclohexyl-5-(2-methoxyethyl)-1H-pyrazol-4-yl)-3-(2,5-difluorophenyl)-1,2,4-oxadiazole]: 0.035 µM; `CNCc1ccc(-c2noc(-c3cnn(CC(C)(C)C)c3-c3ccncc3)n2)cc1` [Example 104, N-methyl-1-(4-(5-(1-neopentyl-5-(pyridin-4-yl)-1H-pyrazol-4-yl)-1,2,4-oxadiazol-3-yl)phenyl)methanamine]: 0.314 µM; `CNCc1ccc(-c2noc(-c3cnn(CCc4ccccc4)c3-c3ccncc3)n2)cc1` [Example 106, N-methyl-1-(4-(5-(1-phenethyl-5-(pyridin-4-yl)-1H-pyrazol-4-yl)-1,2,4-oxadiazol-3-yl)phenyl)methanamine]: 0.458 µM.
As to `COCc1c(-c2nc(-c3ccc(Cn4cncn4)cc3)no2)cnn1C1CCCCC1` [Example 107, 3-(4-((1H-1,2,4-triazol-1-yl)methyl)phenyl)-5-(1-cyclohexyl-5-(methoxymethyl)-1H-pyrazol-4-yl)-1,2,4-oxadiazole], it took 0.045 µM to reach a half-maximal effect (EC50).
Under `COCCc1c(-c2nc(-c3cccc(C(F)(F)F)c3)no2)cnn1C1CCCCC1` [Example 108, 5-(1-cyclohexyl-5-(2-methoxyethyl)-1H-pyrazol-4-yl)-3-(3-(trifluoromethyl)phenyl)-1,2,4-oxadiazole] stands 0.102 µM; under `COCc1c(-c2nc(-c3ccc(CCO)cc3)no2)cnn1C1CCCCC1` [Example 109, 2-(4-(5-(1-cyclohexyl-5-(methoxymethyl)-1H-pyrazol-4-yl)-1,2,4-oxadiazol-3-yl)phenyl)ethanol], 0.312 µM.
Next, `O=C(O)C1CN(Cc2ccc(-c3noc(-c4cnn(CCc5ccccc5)c4-c4ccncc4)n3)cc2)C1` [Example 110, 1-(4-(5-(1-phenethyl-5-(pyridin-4-yl)-1H-pyrazol-4-yl)-1,2,4-oxadiazol-3-yl)benzyl)azetidine-3-carboxylic acid, formate]: 0.04 µM.
Next, `COCCc1c(-c2nc(-c3ccc(Cn4cncn4)cc3)no2)cnn1C1CCCCC1` [Example 111, 3-(4-((1H-1,2,4-triazol-1-yl)methyl)phenyl)-5-(1-cyclohexyl-5-(2-methoxyethyl)-1H-pyrazol-4-yl)-1,2,4-oxadiazole]: 0.029 µM.
